In data set [1] the test system is mouse. The note with it: cited from earlier work.
Data set [2] concerns the target T1, m-calpain (Rattus norvegicus, UniProt Q07009).
T1 construct: m-calpain which was extracted and purified from rat brain; from tissue; host or cells: rat brain
T1 sequence (Q07009 20-700 limits assumed): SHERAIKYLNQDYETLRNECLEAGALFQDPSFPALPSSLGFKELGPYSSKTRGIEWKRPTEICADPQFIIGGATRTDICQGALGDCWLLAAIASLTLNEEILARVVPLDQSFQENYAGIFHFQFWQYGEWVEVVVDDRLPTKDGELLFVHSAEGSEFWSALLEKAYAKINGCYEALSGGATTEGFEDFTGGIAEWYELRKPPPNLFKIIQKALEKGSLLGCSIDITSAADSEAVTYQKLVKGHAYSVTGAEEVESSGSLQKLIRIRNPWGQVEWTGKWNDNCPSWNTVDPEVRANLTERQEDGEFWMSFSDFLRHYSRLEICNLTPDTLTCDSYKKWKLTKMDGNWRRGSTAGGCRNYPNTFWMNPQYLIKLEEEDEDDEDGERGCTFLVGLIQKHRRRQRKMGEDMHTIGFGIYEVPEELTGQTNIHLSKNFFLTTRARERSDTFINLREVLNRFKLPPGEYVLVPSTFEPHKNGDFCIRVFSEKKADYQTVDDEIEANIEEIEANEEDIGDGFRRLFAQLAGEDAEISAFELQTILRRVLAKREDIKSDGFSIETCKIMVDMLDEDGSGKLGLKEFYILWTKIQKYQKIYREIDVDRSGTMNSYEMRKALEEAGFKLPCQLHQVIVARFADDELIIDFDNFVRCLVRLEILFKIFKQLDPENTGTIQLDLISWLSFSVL
T1 sequence (Q64537 1-270 partner): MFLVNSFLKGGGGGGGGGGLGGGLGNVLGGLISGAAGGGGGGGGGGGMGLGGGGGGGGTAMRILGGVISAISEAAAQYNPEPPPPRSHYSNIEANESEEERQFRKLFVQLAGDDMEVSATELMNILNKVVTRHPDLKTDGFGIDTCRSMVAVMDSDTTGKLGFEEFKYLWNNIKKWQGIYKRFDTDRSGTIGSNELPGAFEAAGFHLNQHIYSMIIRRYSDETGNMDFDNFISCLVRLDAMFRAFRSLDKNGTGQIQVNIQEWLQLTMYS
Kind of data set: calpain inhibitory activity. The class given is biochemical. The note with it: m-calpain extracted and purified from rat brain; read-out: calpain inhibitory activity IC₅₀. As for the experimental part:
According to the method previously described (Journal of Biological Chemistry, 259, 12489 (1984)), inhibitory activity of several compounds were determined with m-calpain which was extracted and purified from rat brain by means of the method described in Journal of Biological Chemistry, 259, 3210 (1984). The results are summarized in the following table in which the data for NCO-700 (Arzneimittel Forschung/Drug Research 36, 190 (1986)) and for MDL 28170 (Biochemical and Biophysical Research Communications, 157, 1117 (1988)) are those disclosed in the references.

The target of data set [3] is calpain. To be noted: cited from earlier work.
Data set [4] deals with T2, calpain I (Homo sapiens, UniProt P07384).
T2 construct: endogenous in cells; host or cells: human erythrocyte
T2 sequence (P07384 1-714): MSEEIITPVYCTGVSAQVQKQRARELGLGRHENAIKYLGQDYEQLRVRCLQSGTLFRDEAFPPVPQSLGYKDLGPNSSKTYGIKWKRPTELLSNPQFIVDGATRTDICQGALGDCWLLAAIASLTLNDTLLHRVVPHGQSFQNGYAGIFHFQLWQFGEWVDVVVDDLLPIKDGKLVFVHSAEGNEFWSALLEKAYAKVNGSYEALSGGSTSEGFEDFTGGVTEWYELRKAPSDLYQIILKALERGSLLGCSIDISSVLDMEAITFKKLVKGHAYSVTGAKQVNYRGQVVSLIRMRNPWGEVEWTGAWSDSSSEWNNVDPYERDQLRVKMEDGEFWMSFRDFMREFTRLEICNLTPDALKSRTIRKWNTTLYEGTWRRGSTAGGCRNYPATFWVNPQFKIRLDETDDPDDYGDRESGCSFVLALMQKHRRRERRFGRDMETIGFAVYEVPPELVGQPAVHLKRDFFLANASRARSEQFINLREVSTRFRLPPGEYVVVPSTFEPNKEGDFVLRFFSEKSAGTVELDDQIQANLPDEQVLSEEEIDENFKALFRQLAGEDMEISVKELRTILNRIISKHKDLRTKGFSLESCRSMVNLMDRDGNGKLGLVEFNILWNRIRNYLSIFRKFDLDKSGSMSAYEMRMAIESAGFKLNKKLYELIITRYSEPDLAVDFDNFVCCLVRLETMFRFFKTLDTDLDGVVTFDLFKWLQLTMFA
T2 sequence (P04632 1-268 partner): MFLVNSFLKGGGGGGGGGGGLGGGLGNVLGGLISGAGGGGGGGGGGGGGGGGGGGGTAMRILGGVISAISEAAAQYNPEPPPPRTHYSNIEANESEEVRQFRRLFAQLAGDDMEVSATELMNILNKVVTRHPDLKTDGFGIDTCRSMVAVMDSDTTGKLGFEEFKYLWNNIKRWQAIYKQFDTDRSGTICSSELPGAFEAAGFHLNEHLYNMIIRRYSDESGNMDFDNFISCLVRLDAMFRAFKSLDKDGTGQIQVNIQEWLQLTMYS
Kind of data set: conversion of 80KDa calpain I to 76KDa form in erythrocyte incubated with calcium. The note with it: human erythrocyte incubated in the presence of calcium. It counts as cell-based. An excerpt: Calpain I is partially purified from post-mortem brain. Fraction containing crude calpain I is subjected to electrophoresis, and reacted with monoclonal antibody to human calpain I (Biochemical Journal, 246, 481 (1987); Biochemical Journal, 261, 1039 (1989)) to show three bands. Molecular weights of these bands are 80KDa, 78KDa, and 76KDa, respectively, and are identical to those in erythrocyte (Biochemical Journal, 246, 482 (1987); Biochemical Journal, 261, 1039 (1989)). When human erythrocyte is incubated in the presence of calcium, the 80KDa band disappears and the 76KDa band appears. This reaction is inhibited by leupeptine which is a calpain inhibitor. Furthermore, there exists a good correlation between the amount of the 76KDa protein and the enzyme activity. […] This transformation from 80KDa to 76KDa in the presence of calcium can also be observed with slice specimens of post-mortem human brain.

These results are taken from patent publication EP0580161A1, “Prophylactic and therapeutic treatment of Alzheimer's disease” (THE McLEAN HOSPITAL CORPORATION, priority 1992, dated 1994).

Where two headings read alike, the source gives them in different places. Residues, ends and D or L forms follow the SMILES beside them. *: point of attachment. Cbz = O=C(OCc1ccccc1)*

As to `CC(C)CCNC(=O)[C@H](CC(C)C)NC(=O)[C@H]1O[C@@H]1C(=O)O` [E-64-c], the LD₅₀ in data set [1] (po) is listed as over 2000 mg/kg.
As to `CCOC(=O)[C@H]1O[C@@H]1C(=O)N[C@@H](CC(C)C)C(=O)NCCC(C)C` [E-64-d], the LD₅₀ in data set [1] (po) is on record as over 2000 mg/kg.
For the compound `CC(C)CC(NC(=O)[C@H]1O[C@@H]1C(=O)O)C(=O)NCCCCNC(=N)N` (some centres unmarked) [E-64], the IC50 in data set [2] was found to be 0.96 µM. The LD₅₀ in data set [1] (po) is over 2000 mg/kg.
What is called Ki is the equilibrium dissociation constant of an inhibitor or competing ligand from its target. For the compound `CC(C)[C@H](NC(=O)OCc1ccccc1)C(=O)N[C@H](C=O)Cc1ccccc1` [MDL 28170] (Cbz-Val-Phe-aldehyde), in data set [3] (value disclosed in Biochemical and Biophysical Research Communications, 157, 1117 (1988), read-out: calpain inhibitory activity Ki), the Ki is 0.007 µM.
In the case of `CCOC(=O)[C@@H]1O[C@H]1C(=O)NC(CC(C)C)C(=O)N1CCN(Cc2ccc(OC)c(OC)c2OC)CC1.CCOC(=O)[C@@H]1O[C@H]1C(=O)NC(CC(C)C)C(=O)N1CCN(Cc2ccc(OC)c(OC)c2OC)CC1.O=S(=O)(O)O` (some centres unmarked) [NCO-700], the IC50 in data set [3] (value disclosed in Arzneimittel Forschung/Drug Research 36, 190 (1986), read-out: calpain inhibitory activity IC₅₀) was 46 µM. Besides, in data set [1] (iv), the LD₅₀ was 374 mg/kg.
As to `CCCCC(C=O)NC(=O)C(CC(C)C)NC(=O)OCc1ccccc1` (centres unmarked) [carpeptine], the IC50 in data set [2] was 0.046 µM.
On to `NC(N)=NCCCCNC(=O)[C@H](Cc1ccccc1)NC(=O)C1OC1C(=O)O` (some centres unmarked) [estatine A], for which, in data set [1] (ip), the LD₅₀ is listed as over 400 mg/kg.
Consider `CC(=O)NC(CC(C)C)C(=O)NC(CC(C)C)C(=O)NC(C=O)CCCNC(=N)N` (centres unmarked) [leupeptine], for which, in data set [4], the “disappearance of 80KDa band and appearance of 76KDa band of calpain I” value is “inhibited”. Besides, the IC50 in data set [2] came to 0.36 µM.
